Test results reported in ChEMBL document CHEMBL4825725, “Synthesis and interaction of terminal unsaturated chemical probes with Mycobacterium tuberculosis CYP124A1” (Bioorg Med Chem, 2021).
pKd: −log10 of the molar value. Active and inactive are the calls of the source. The rule behind the calls is not given here.

How the values were obtained:
[1] = Drug metabolism assessed as Mycobacterium tuberculosis CYP124A1-mediated drug oxidation at 50 to 250 uM in presence of ferridoxin, ferridoxin-NADP+ reductase and NADPH by GC-MS analysis; format: ADME; conditions: recombinant enzyme, dose 50-250 µM
[2] = system: Mycobacterium tuberculosis; assay: Inhibition of Mycobacterium tuberculosis CYP124A1 at 50 uM incubated for 10 mins in presence of ferridoxin, ferridoxin-NADP+ reductase and NADPH by HPLC analysis
[3] = Binding affinity to Mycobacterium tuberculosis CYP124A1 by UV-visible spectrophotometric analysis; conditions: read-out: Kd(app)

Row | Structure (SMILES) | Drug metabolism [1] | inhibition [2] | pKd [3]
1 | C=CCOC/C(C)=C/CC/C(C)=C/CC/C(C)=C/CO | Metabolite_Notdetected | inactive | 5.54
2 | CC(C)=CCC/C(C)=C/CC/C(C)=C/CO [FARNESOL] | – | – | 5.98
3 | C=CCOC/C(C)=C/CC/C(C)=C/CO | Metabolite_Notdetected | inactive | 4.31
4 | C#CCOC/C(C)=C/CC/C(C)=C/CO | Metabolite_Notdetected | inactive | 4.84
5 | C#CCOC/C(C)=C/CC/C(C)=C/CC/C(C)=C/CO | Metabolite_Notdetected | inactive | 5.82
6 | CC(C)CCCC(C)CCCC(C)CCCC(C)CC(=O)O (centres undefined) | – | – | 6.66
